According to US8178525B2 (priority 2008, dated 2012):
Where a name gives a salt, the structure may show the parent alone. Read-outs that look alike come from different tables or passages of the source. Marks after values point to notes of the source that are not given here.

Experiments:
[1] = target: T1, human FXa (Homo sapiens, UniProt P00742); test: Inhibitory activity against purified human FXa, chromogenic substrate S-2765; type: biochemical
T1 construct: purchased Enzyme Research Laboratories
Description: Human FXa was purchased from Enzyme Research Laboratories. 96-well microplate was purchased from Corning Life Sciences.
Inhibitory activity of the oxazolidinone derivatives with cyclic amidoxime or cyclic amidrazone group represented by formula I of the present invention against FXa was measured as follow.
The reaction was initiated by the addition of the substrate, and the absorbance was monitored continuously at 405 nm for 5 min using SpectraMax 190 (Molecular Devices, USA). The inhibitory constant (Ki) against human FXa was calculated according to the Cheng-Prusoff equation (Ki=IC50/1+[S]/Km), where [S] is the substrate concentration, and Km is the MichalisMenten constant. Km was determined from a Lineweaver-Burk plot. […] IC50 values were calculated using GraFit software version 5.0.12 (Erithacus Software Ltd., UK).

[2] = tested on: Citrated human and rat plasma; test: Prothrombin time (PT), method using coagulometer; type: biochemical; details: concentration required to double the plasma clotting times, plasma species not given
Description: (§1) Effect of the oxazolidinone derivatives with cyclic amidoxime or cyclic amidrazone group represented by formula I of the present invention on blood coagulation was investigated by measuring prothrombin time (PT).
a) Method using coagulometer: Prothrombin time (PT) was measured with a Thrombotimer 4-channel coagulometer (Behnk Elektronik, Germany). Citrated human and rat plasma were used in the assays. For the PT measurement, 100 uL of freshly thawed plasma was mixed with 3 uL of serial dilution of test compound or DMSO. After 5 min incubation at 37° C., 200 uL of STA-Neoplastine (Diagnostica Stago, France) was added to start clot formation. Anticoagulant activity of the compounds was defined as the concentration required to double the plasma clotting times [2×PT (uM)]. Human plasma was obtained from Daejeon Red Cross Blood Center. […] Blood was collected into plastic tubes containing 1/10 volume of 3.8% sodium citrate. Plasma was obtained by immediate centrifugation at 2500 g for 10 min at 4° C., and stored at −70° C.

[3] = tested on: citrated plasma; test: Prothrombin time (PT), method using spectramax; type: biochemical, human and rat; details: concentration required to double the plasma clotting times, absorbance 340 nm, plasma species not given
Description: as §1
b) Method using spectramax: The compound solution of serial dilution (5 uL) according to the present invention was mixed with citrated plasma (45 uL) followed by addition of STA-Neoplastine (Diagnostica Stago, France) after 5 min at 37° C. Absorbance at 340 nm was continuously monitored and the PT was determined as time (in seconds) when the absorbance at 340 nm reached 0.1. Anticoagulant activity of the compounds was defined as the concentration required to double the plasma clotting times [2×PT (uM)]. Human plasma was obtained from Daejeon Red Cross Blood Center. […] Blood was collected into plastic tubes containing 1/10 volume of 3.8% sodium citrate. Plasma was obtained by immediate centrifugation at 2500 g for 10 min at 4° C., and stored at −70° C.

[4] = tested on: thrombus formation in rat AV-shunt; test: Antithrombotic effect in arteriovenous shunt (AV-shunt) model in rats; type: in vivo; details: oral 60 min before shunt, dose not given
Description: Antithrombotic effect of the oxazolidinone derivatives with cyclic amidoxime or cyclic amidrazone group represented by formula I of the present invention was evaluated using arteriovenous (AV) shunt in rats. Fasted, male Sprague-Dawley rats, weighed 200-240 g and aged approximately 7 weeks, were anesthetized by intraperitoneal injection of urethane (1.25 g/kg) or chloral hydrate. An arteriovenous (AV) shunt in anesthetized rats was performed as described previously, with minor modification [Journal of Thrombosis and Haemostasis (2004) 3, 514]. The left common carotid artery and the right jugular vein were cannulated with two 200-mm-long, saline filled tubes (PE-50, Becton Dickinson, USA). The polyethylene tubes were connected through 8-mm-long silicone tubing (L/S® 13, MasterFlex, USA) with a 50-mm-long silicone tube (L/S® 16, MasterFlex, USA) containing a […]. The compound or vehicle was given orally 60 min before shunt was opened for 15 min. The cotton thread was then withdrawn and weighed. ED50 values were calculated by linear regression analysis using Excel 2003 (Microsoft®.

[5] = tested on: rat tail bleeding time; test: Bleeding time (BT) in rat tail bleeding model; type: in vivo; details: for Prolongation of bleeding time (X-fold): rat tail, po
Description: Fasted, male Sprague-Dawley rats, weighed 200-240 g and aged approximately 7 weeks, were anesthetized by intraperitoneal injection of pentobarbital-Na (60 mg/kg). The FXa inhibitors or vehicle was given orally 60 min before the tails of anesthetized rats were transected 2 mm from the tip and vertically immersed in saline at 37° C. The time until continuous blood flow ceased for >30 s was measured, with a maximum observation time of 30 min (longer bleeding time were assigned a value of 30 min).

[6] = physchem; type: physicochemical
Source text: Rivaroxaban represented by formula A was used as the comparison drug.

[7] = purified human FXa 2.6 nM, S-2765 300 uM, pH 7.8, 37° C., Cheng-Prusoff, Km 125 μM, read-out: Ki (nM), inhibition constant against human FXa
[8] = values without asterisk (urethane anesthetic)
[9] = asterisked values (chloral hydrate anesthetic)

T1 sequence (P00742 235-488 limits assumed): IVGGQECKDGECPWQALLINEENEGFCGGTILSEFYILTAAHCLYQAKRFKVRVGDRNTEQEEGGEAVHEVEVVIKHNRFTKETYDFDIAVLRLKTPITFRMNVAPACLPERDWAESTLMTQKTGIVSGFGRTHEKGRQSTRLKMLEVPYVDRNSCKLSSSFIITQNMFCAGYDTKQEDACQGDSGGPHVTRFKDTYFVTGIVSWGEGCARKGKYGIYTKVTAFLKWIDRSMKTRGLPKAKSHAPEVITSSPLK
T1 sequence (P00742 41-179 partner limits assumed): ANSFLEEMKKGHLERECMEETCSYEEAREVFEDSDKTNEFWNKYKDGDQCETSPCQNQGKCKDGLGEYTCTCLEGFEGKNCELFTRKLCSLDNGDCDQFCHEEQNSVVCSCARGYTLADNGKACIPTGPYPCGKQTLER

| SMILES | Ki [1, 7] [nM] | 2xPT (uM) Coagulometer [2] [µM] | 2xPT (uM) Spectramax [3] [µM] | Inhibition of thrombus formation (%) [4, 8] [%] | Inhibition of thrombus formation (%) [4, 9] | Ki [1] [nM] | further results |
| --- | --- | --- | --- | --- | --- | --- | --- |
| CCN1OCCN=C1c1ccc(N2C[C@H](CNC(=O)c3ccc(Cl)s3)OC2=O)cc1 [Compound 105] | 3.62 | 0.16 | 0.04 | 80 | – | – | – |
| CN1C=NN(c2ccc(N3C[C@H](CNC(=O)c4ccc(Cl)s4)OC3=O)cc2)CC1 [Compound 112] | 120 | 4.26 | – | – | 44* % | – | – |
| O=C(NC[C@H]1CN(c2ccc(C3=NCCN4C(=O)CCN34)cc2)C(=O)O1)c1ccc(Cl)s1 [Compound 108] | – | 1.00 | 0.35 | 52 | – | 15.8 | – |
| O=C(NC[C@H]1CN(c2ccc(C3=NOCCN3C3CC3)cc2)C(=O)O1)c1ccc(Cl)s1 [Compound 103] | – | – | 1.10 | 24 | – | 53.3 | – |
| O=CN1CCN(c2ccc(N3C[C@H](CNC(=O)c4ccc(Cl)s4)OC3=O)cc2)C=N1 [Compound 118] | 132 | 9.38 | 4.88 | 74 | – | – | – |
| CC1=NN(c2ccc(N3C[C@H](CNC(=O)c4ccc(Cl)s4)OC3=O)cc2)CCN1C [Compound 113] | 29.3 | 0.62 | – | – | 12* % | – | – |
| CN1C=NCCN1c1ccc(N2C[C@H](CNC(=O)c3ccc(Cl)s3)OC2=O)cc1 [Compound 114] | 2.86 | 0.50 | – | – | 5* % | – | – |
| O=C(NC[C@H]1CN(c2ccc(C3=NOCCN3)cc2)C(=O)O1)c1ccc(Cl)s1 [Compound 101] | – | – | 1.39 | 45 | – | 110 | – |
| CCN1CCON=C1c1ccc(N2C[C@H](CNC(=O)c3ccc(Cl)s3)OC2=O)cc1 [Compound 102] | – | 1.76 | 0.77 | 61 | – | 8.91 | – |
| O=C(NC[C@H]1CN(c2ccc(N3CCNC=N3)cc2)C(=O)O1)c1ccc(Cl)s1 [Compound 109] | – | 0.44 | 0.21 | 78 | 73% | 4.37 | Prolongation of bleeding time (X-fold) ([5]; dose 2.5 mg/kg): 2.5 X-fold; Prolongation of bleeding time (X-fold) ([5]; dose 5 mg/kg): 4.0 X-fold; Prolongation of bleeding time (X-fold) ([5]; dose 10 mg/kg): 4.1 X-fold |
| O=C(NC[C@H]1CN(c2ccc(N3C=NOCC3)cc2)C(=O)O1)c1ccc(Cl)s1 [Compound 115] | 84 | – | 1.49 | 29 | – | – | – |
| CN1CCON=C1c1ccc(N2C[C@H](CNC(=O)c3ccc(Cl)s3)OC2=O)cc1 [Compound 100] | – | 0.69 ± 0.07 | 0.25 | 65 | 58% | 7.11 | prolongation of bleeding time compared to the vehicle control ([5]; rat tail bleeding model, 10 mg/kg): did not prolonged bleeding time; Prolongation of bleeding time (X-fold) ([5]; dose 5 mg/kg): 0.9 X-fold |
| O=C(NC[C@H]1CN(c2ccc(N3CCON=C3C3CC3)cc2)C(=O)O1)c1ccc(Cl)s1 [Compound 117] | 101 | – | 2.2 | – | – | – | – |
| O=C(NC[C@H]1CN(c2ccc(N3CCNC=N3)cc2)C(=O)O1)c1ccc(Cl)s1 [Compound 109-HCl] | – | – | – | – | – | – | Aqueous Solubility [6]: 6 mM |
| CC1=NN(C)CCN1c1ccc(N2C[C@H](CNC(=O)c3ccc(Cl)s3)OC2=O)cc1 [Compound 121] | 95.6 | 2.90 | 0.54 | 51 | – | – | – |
| CCN1CCN(C)N=C1c1ccc(N2C[C@H](CNC(=O)c3ccc(Cl)s3)OC2=O)cc1 [Compound 106] | – | – | 0.33 | – | – | > 30 | – |
| CC1=NOCCN1c1ccc(N2C[C@H](CNC(=O)c3ccc(Cl)s3)OC2=O)cc1 [Compound 116] | 23.2 | 3.51 | 0.71 | 74 | – | – | – |
| CC1=NN(c2ccc(N3C[C@H](CNC(=O)c4ccc(Cl)s4)OC3=O)cc2)CCN1 [Compound 110] | 2.07 | 0.31 | – | – | 45* % | – | – |
| CN1CCON=C1c1ccc(N2C[C@H](CNC(=O)c3ccc(Cl)s3)OC2=O)cc1 [100 (MSA salt)] | – | – | – | – | – | – | Prolongation of bleeding time (X-fold) ([5]; dose 5 mg/kg): 1.1 X-fold; Prolongation of bleeding time (X-fold) ([5]; dose 10 mg/kg): 1.8 X-fold; Prolongation of bleeding time (X-fold) ([5]; dose 20 mg/kg): 5.1 X-fold; Aqueous Solubility [6]: >20 mM |
| CCC1=NN(c2ccc(N3C[C@H](CNC(=O)c4ccc(Cl)s4)OC3=O)cc2)CCN1 [Compound 111] | 18.9 | 0.40 | – | – | 17* % | – | – |
| O=C(NC[C@H]1CN(c2ccc(N3CCNC=N3)cc2)C(=O)O1)c1ccc(Cl)s1 [109 (MSA salt)] | – | – | – | – | – | – | Prolongation of bleeding time (X-fold) ([5]; dose 2.5 mg/kg): 2.1 X-fold; Prolongation of bleeding time (X-fold) ([5]; dose 5 mg/kg): 3.8 X-fold; Prolongation of bleeding time (X-fold) ([5]; dose 10 mg/kg): 5.7 X-fold; Aqueous Solubility [6]: >20 mM |
| CN1OCCN=C1c1ccc(N2C[C@H](CNC(=O)c3ccc(Cl)s3)OC2=O)cc1 [Compound 104] | 10 | – | 0.05 | 21 | – | – | – |
| CN1CCON=C1c1ccc(N2C[C@H](CNC(=O)c3ccc(Cl)s3)OC2=O)cc1 [100 (HCl salt)] | – | – | – | – | – | – | Prolongation of bleeding time (X-fold) ([5]; dose 5 mg/kg): 1.2 X-fold; Prolongation of bleeding time (X-fold) ([5]; dose 10 mg/kg): 0.9 X-fold; solubility ([6]; water, read-out: Aqueous Solubility): 12 mM |
